Experimental findings from EPA's ToxValDB 9.5 are described below.

Converted amounts (≈) assume the structure as drawn. “And” between values parts separate entries of the source, which are not always exact repeats. Equal values may be shown once.

The test system of series [1] is Rattus norvegicus. Put plainly: LC0; higher = less toxic. Particulars: acute; Inhalation; Wistar.
Series [2] has as its system Rattus norvegicus.
The test system of series [3] is Oryctolagus sp. Briefly: LD0; higher = less toxic. The conditions noted are these: acute; dermal; occlusive; New Zealand.
The subject of series [4] is Rattus norvegicus. Particulars: subchronic; duration: 63 days; oral; gavage; M; Sprague-Dawley; Clinical Observation: Piloerection SalivationMatted fur + Body Weight Changes: decrease.
The subject of series [5] is Bacteria. Particulars: In vitro / microbiological growth inhibition; Growth inhibition.
For series [6], the system named is Rattus norvegicus. The conditions noted are these: oral, M/F.
Series [7] deals with Cavia porcellus. The conditions noted are these: chronic; duration: 26 weeks; inhalation; M/F; Guinea Pig; methemoglobin increase, spleen toxicity.
Series [8] has as its system Mus musculus. Particulars: chronic; duration: 26 weeks; inhalation; M/F; methemoglobin increase, spleen toxicity.
Series [9] relates to Rattus norvegicus. The source holds these as a separate data set.
In series [10] the test system is Guinea Pig, Mouse, Rat. The conditions noted are these: subchronic; inhalation; intermittent; Spleen: Pathology.
The subject of series [11] is Mus musculus. Briefly: LC100; higher = less toxic. Particulars: acute; inhalation.
Series [12] deals with Oryctolagus sp.
Series [13] deals with Cavia porcellus. Particulars: Guinea Pig.
Series [14] has as its system Mus musculus. Particulars: for LC50 / LD50: acute.
Series [15] concerns Mus musculus. The conditions noted are these: chronic; duration: 2 years; oral; diet; M/F; Tif MAG; Uterine pathology.
In series [16] the test system is Monkey. The conditions noted are these: chronic; oral; F; Cyanomolgus; Altered serum hormones & menstrual cyclicity.
Series [17] has as its system Mammals. Particulars: acute; Inhalation.
Series [18] has as its system Cavia porcellus. Briefly: LD100; higher = less toxic. The conditions noted are these: acute; oral; Guinea Pig.
For series [19], the system named is Rattus norvegicus. Put plainly: LD100; higher = less toxic. The conditions noted are these: acute.
Series [20] concerns Mammals. Put plainly: LD100; higher = less toxic. The conditions noted are these: acute; Oral.
Series [21] concerns Mus musculus. Briefly: LD10; higher = less toxic. Particulars: acute; oral; BALB/cAnCr.
For series [22], the system named is Oryctolagus sp. The conditions noted are these: uterotrophic; injection; subcutaneous; Active.
Series [23] concerns Mus musculus. The conditions noted are these: uterotrophic; duration: 3 days; injection; subcutaneous; Active.
The test system of series [24] is Rattus norvegicus. The conditions noted are these: uterotrophic, Active.
Series [25] deals with Homo sapiens. Particulars: duration: 10 days, oral, F, Withdrawal bleeding.
Setting [26] is: short-term, duration: 4 weeks, inhalation, M, Sprague-Dawley.
Where [27] appears, read: short-term, duration: 4 weeks, inhalation, Sprague-Dawley.
The mark [28] stands for this setting: subchronic, oral, M/F, reduced body weight.
The mark [29] stands for this setting: subchronic, duration: 7 weeks, inhalation.
[30] abbreviates: subchronic, duration: 35 days, inhalation.
Where [31] appears, read: subchronic, duration: 35 days, inhalation, ICR.
The mark [32] stands for this setting: subchronic, duration: 90 days, oral, gavage, Albino- not specified.
[33] abbreviates: developmental, duration: 13 days, oral, gavage, New Zealand.
[34] abbreviates: reproduction developmental, duration: 13 days, oral, gavage, F, New Zealand.
Setting [35] is: developmental, duration: 10 days, oral, gavage, Crj:CD.

`Nc1ccccc1[N+](=O)[O-]` [2-Nitrobenzenamine] registered an LC0 in series [1] greater than 2530 mg/m3. Also, the NOAEL (in general, the highest dose or exposure tested at which no adverse effect was seen) in series [2] (developmental, duration: 6 days, oral, gavage, Sprague-Dawley) was 600 mg/kg-day; in [2] (reproduction developmental, duration: 6 days, oral, gavage, F, Sprague-Dawley) it was 100 mg/kg-day; in [2] (setting [26]), 9.8 mg/m3; in series [2] (setting [27]), 30 mg/m3; in [2] (short-term, duration: 14 days, oral, gavage, Sprague-Dawley) it was no less than 100 mg/kg-day; in series [4] it was 50 mg/kg-day. Further, the LOAEL (in general, the lowest tested level that showed an adverse finding) in [2] (setting [26]) was found to be 93 mg/m3; in series [2] (setting [27]) it was 73 mg/m3. For the same compound, the LD0 in [3] is greater than 7940 mg/kg.

`CC1(C)S[C@@H]2[C@H](NC(=O)[C@H](N)c3ccc(O)cc3)C(=O)N2[C@H]1C(=O)O` [Amoxicillin] showed an NOAEC in series [5] of 0.1 µg/mL.

For `Nc1ccccc1` [Aniline], the LOAEL in series [6] (chronic, duration: 104 weeks, diet, Crl:CD1, Immune, Hematologic) stood at 7 mg/kg-day; in [9] (short-term, inhalation, M, Mild spleen toxicity 2-Week), 64.7 mg/m3. The NOAEL stood at 19 mg/m3 in [7]; 19 mg/m3 in series [8]; 19 mg/m3 in series [9] (chronic, duration: 26 weeks, inhalation, M/F, methemoglobin increase, spleen toxicity); 38.1 mg/m3 in [2] (short-term, duration: 2 weeks, inhalation); 19 mg/m3 in [10].

For `CCOCC` [Diethyl ether], the LC100 in series [11] turned out to be 128 mg/L. Also, the NOAEL in [6] (subchronic, duration: 90 days, gavage, Sprague-Dawley, Whole Body Effects) stood at 500 mg/kg-day; in series [9] (setting [28]), 500 mg/kg-day; in series [12] (setting [29]), 6.2 mg/L; in series [13] (setting [29]), 6.2 mg/L; in series [13] (setting [30]), 3 mg/L; in series [14] (setting [31]) it was 3 mg/L. The NOAEL in [2] (subchronic, duration: 7 weeks, inhalation, Wistar) came to 6.2 mg/L; in series [2] (subchronic, duration: 35 days, inhalation, Sprague-Dawley), 30 mg/L; in [2] (setting [32]) it was 500 mg/kg-day. Besides, the LOAEL is 2000 mg/kg-day in [9] (setting [28]), 30 mg/L in [13] (setting [30]), 30 mg/L in series [14] (setting [31]) and 2000 mg/kg-day in [2] (setting [32]). In addition, the LC50 was 130 µg/mL (≈ 1750 µM) in series [14] (inhalation); 98200 mg/m3 and 94900 mg/m3 in series [14] (inhalation, C3H/HeCr); 199000 mg/m3 and 182000 mg/m3 in series [14] (inhalation, C57BL/6); 1710 mg/kg in series [2] (acute, oral, Sprague-Dawley). The LD50 in [14] (injection, Intraperitoneal) stood at 2420 mg/kg; in [14] (injection, intravenous), 996 mg/kg.

In the case of `O=C(NC(=O)c1c(F)cccc1F)Nc1ccc(Cl)c(Oc2ncc(C(F)(F)F)cc2Cl)c1` [Fluazuron], in series [15], the NOEL amounted to 4.3 mg/kg-day.

Take `C=C1C[C@H]2[C@@H]3C=C(C)C4=CC(=O)CC[C@]4(C)[C@H]3CC[C@]2(C)[C@@]1(OC(C)=O)C(C)=O` [Melengestrol acetate]: the LOEL in [16] worked out at 0.005 mg/kg-day.

For `C1COCCN1` [Morpholine], the LD50 in series [13] (acute, oral) was 900 mg/kg; in series [14] (oral) it was 525 mg/kg; in series [2] (acute, inhalation), ≥ 7.8 mg/L and ≤ 8.2 mg/L. In [17], this compound showed an LC50 of 12 µg/mL (≈ 138 µM). Also, the LD100 in series [18] came to 100 mg/kg; in series [19] (injection, Intraperitoneal) it was 400 mg/kg; in series [19] (oral) it was 100 mg/kg; in [20], 1220 mg/kg.

For the compound `CNC=O` [N-Methylformamide], the LD10 in [21] stood at 1800 mg/kg. Further, the LOAEL in series [12] (setting [33]) worked out at 50 mg/kg-day; in series [12] (setting [34]), 50 mg/kg-day; in series [2] (setting [35]), 75 mg/kg-day. Also, the NOAEL in [12] (setting [33]) stood at 10 mg/kg-day; in [12] (setting [34]), 10 mg/kg-day; in [2] (setting [35]), 10 mg/kg-day; in series [2] (reproduction developmental, duration: 10 days, inhalation, F, Crl: CD BR), 36.2 mg/m3; in series [2] (short-term, duration: 2 weeks, inhalation, M, Crl:CD(SD)), 0.12 mg/L. Moreover, the LD50 stood at 2600 mg/kg in series [14] (oral, BALB/cAnCr) and 4000 mg/kg in series [2] (acute, oral).

`CC(=O)[C@H]1CC[C@H]2[C@@H]3CCC4=CC(=O)CC[C@]4(C)[C@H]3CC[C@]12C` [Progesterone]: the LEL in [22] was determined as 1 mg/day; in [23], 0.087 mg; in series [24] (duration: 2 days, oral), 0.5 mg/kg-day; in [24] (duration: 4 days, injection, intraperitoneal) it was 50 mg/kg-day; in series [24] (duration: 14 days, oral), 10 mg. In addition, the “LEL (gamma)” value in series [23] turned out to be 30. For the same compound, the LOEL in [25] (Clinical) and in [25] (clinical) was 3.3 mg/kg-day throughout.
